Several values for one entry are separate records, joined by “and”; a condition that tells them apart may be missing. Equal values may be shown once.
What was measured:
L1210 = conditions: vincristine 1 μM, 30 min, nilotinib 10 μM
Excerpt: (A) Gene expression of the OATP1B2 gene in L1210 and P388D1 murine leukemia cells
normalized to total protein levels. All data presented represent the mean (bars) ± SEM (error bars).

hOATP1B1 = target: T1, hOATP1B1 (Homo sapiens, UniProt Q9Y6L6); test: Inhibition of vincristine uptake in HEK293 cells overexpressing hOATP1B1; conditions: inhibitor 15 min pre-treatment
T1 sequence (Q9Y6L6 1-691): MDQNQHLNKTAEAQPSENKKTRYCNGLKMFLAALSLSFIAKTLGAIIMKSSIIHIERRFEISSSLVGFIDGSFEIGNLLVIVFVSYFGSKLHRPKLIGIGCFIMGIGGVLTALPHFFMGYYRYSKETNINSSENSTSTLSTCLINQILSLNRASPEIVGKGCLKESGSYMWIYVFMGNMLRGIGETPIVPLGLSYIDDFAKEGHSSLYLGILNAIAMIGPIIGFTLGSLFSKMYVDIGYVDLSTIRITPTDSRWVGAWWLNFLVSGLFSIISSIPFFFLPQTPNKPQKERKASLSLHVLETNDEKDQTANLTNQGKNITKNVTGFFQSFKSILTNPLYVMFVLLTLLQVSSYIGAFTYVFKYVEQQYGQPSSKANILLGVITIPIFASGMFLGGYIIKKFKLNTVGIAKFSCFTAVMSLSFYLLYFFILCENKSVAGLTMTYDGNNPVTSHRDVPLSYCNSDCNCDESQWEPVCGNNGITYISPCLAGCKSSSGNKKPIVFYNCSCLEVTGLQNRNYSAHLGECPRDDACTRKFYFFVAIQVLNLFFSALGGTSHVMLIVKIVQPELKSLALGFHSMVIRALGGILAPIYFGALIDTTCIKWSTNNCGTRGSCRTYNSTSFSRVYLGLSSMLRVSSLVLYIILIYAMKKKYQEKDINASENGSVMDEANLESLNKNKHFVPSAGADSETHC

mice = test: Open field locomotion, Basso Mouse Scale (BMS); type: in vivo; design: key: BMS score: higher = better hindlimb locomotion; normal = 9
Procedure: where the distance between two adjacent rungs is changeable (1-5 cm). The elevated ladder tests were initiated after mice had been acclimated to their surrounding for at least 4 h. The mice were placed at one end of the ladder and encouraged to move forward by a food reward at the other end of the ladder. If a […]
counted by an electrical counter. Experiments were repeated 3 times for each mouse, and an average of the three trials was used for analysis. Open-field locomotion was assessed with the Basso Mouse Scale (BMS) rating system (7). The open field was a round table that was 20.32 cm high and 1.524 m in diameter situated in a quiet testing room with normal lighting. The mice were acclimated to the testing table for 20 min daily for a week before drug administration. Two analysts blinded to the composition of the treatment groups simultaneously scored hindlimb locomotion for 4 min per mouse using a score sheet described previously (7). Parameters of interest included paw position (rotated in, rotated out, parallel placement), trunk stability, tail position, coordination, and plantar and dorsal support. Quantification was based on a scoring system where conditional variables are given a numerical representation in each category. A higher number correlates to better hindlimb locomotor function and ‘normal’ behavior scores a 9; conversely, a lower number represents abnormal locomotion. […]
by an automated ladder test. […]
using the mean Basso Mouse Scale for Locomotion (BMS) score. There were no pronounced differences […]
statistically significant.
(also on this page, place not known: Baseline Day 1 Day 2 Day 3 0 5 10 15 20 25 Number missed steps Wild-type Baseline Day 1 Day 2 Day 3 0 5 10 BMS Wild-type ns A B OATP1B2(-/-) OATP1B2(-/-) score of behavior. ns)

MOLT4 = test: Cytotoxicity of vincristine with or without nilotinib, MTT assay, MOLT4; type: cell-based, human; conditions: vincristine alone, individual replicates
hOAT4 = hOAT4 (Homo sapiens, UniProt Q9NSA0); test: Vincristine uptake screen, HeLa cells overexpressing hOAT4; type: in vitro ADME
Procedure: Relative uptake is expressed as percentage change compared with empty vector controls (n = 4–14 per group). […] Human OATP1B1 and OATP1B3 transporter–overexpressed cells were used as positive controls; empty vector controls were used as the negative control. […] Mechanical allodynia (C), thermal hyperalgesia (D), and sciatic nerve maximal action potential amplitudes (E) are expressed as percentage change relative to baseline values (n = 6–8 per group). Statistical analysis was performed using a 2-way ANOVA with Bonferroni’s post hoc test. **P < 0.01, ***P < 0.001, ****P < 0.0001, compared with baseline values. […] Data are shown as mean ± SEM. […]
transfected with transporters of interest, including hOAT1, hOAT3, hOAT4, hOATP1A2, hOATP3A1, hOATP4A1, hOATP5A1, hOATP1C1, hOATP1B1, hOATP1B3, hOATP2B1, hOCT1, hOCT2, hOCTN1, hOCTN2, hASBT, hNTCP, hNPT1, hMATE1, hOSTα/β, hPEPT1, hPEPT2, rOatp1a1, rOatp1a4, rOatp1a5, rOatp1b2, rNtcp, rAsbt, rOat1, and rOct1. Cells were transfected with expression plasmid or vector control lacking any insert using Lipofectin reagent (Invitrogen). […] The cellular radioactivity was quantified by liquid scintillation counting as described above. […]
Samples were analyzed using real-time quantitative PCR and Taqman Probes (Applied Biosystems). The relative gene expression was determined using the ΔΔCt method, and normalized to the mouse or human housekeeping gene, GAPDH. […]

mMATE1 = mMATE1 (Mus musculus, UniProt Q8K0H1); test: Substrate uptake in HEK293 cells overexpressing mMATE1; conditions: HEK293 mouse MATE1
Chain of mMATE1 (Q8K0H1 whole entry): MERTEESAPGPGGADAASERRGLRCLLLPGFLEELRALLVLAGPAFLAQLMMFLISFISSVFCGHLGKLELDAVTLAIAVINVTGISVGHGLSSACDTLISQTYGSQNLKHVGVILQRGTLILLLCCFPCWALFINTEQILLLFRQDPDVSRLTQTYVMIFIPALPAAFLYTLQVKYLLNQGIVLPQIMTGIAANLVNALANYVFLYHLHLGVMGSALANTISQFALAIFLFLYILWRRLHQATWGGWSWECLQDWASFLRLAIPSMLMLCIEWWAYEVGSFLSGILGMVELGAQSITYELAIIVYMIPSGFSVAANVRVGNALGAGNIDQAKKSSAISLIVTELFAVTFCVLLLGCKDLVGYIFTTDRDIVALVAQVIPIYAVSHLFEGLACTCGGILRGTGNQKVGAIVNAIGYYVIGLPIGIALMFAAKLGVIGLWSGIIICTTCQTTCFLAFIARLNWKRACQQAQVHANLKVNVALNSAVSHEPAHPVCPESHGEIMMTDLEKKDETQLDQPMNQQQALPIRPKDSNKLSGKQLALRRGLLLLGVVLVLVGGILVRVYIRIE
Procedure: on OATP1B1, OATP1B3, or OATP1B2 function was evaluated using EβG (Axxora LLC) as the
transfected with transporters of interest, including hOAT1, hOAT3, hOAT4, hOATP1A2, hOATP3A1, hOATP4A1, hOATP5A1, hOATP1C1, hOATP1B1, hOATP1B3, hOATP2B1, hOCT1, hOCT2, hOCTN1, hOCTN2, hASBT, hNTCP, hNPT1, hMATE1, hOSTα/β, hPEPT1, hPEPT2, rOatp1a1, rOatp1a4, rOatp1a5, rOatp1b2, rNtcp, rAsbt, rOat1, and rOct1. Cells were transfected with expression plasmid or vector control lacking any insert using Lipofectin reagent (Invitrogen). Sixteen hours thereafter, cells were washed with transport media (OPTIMEM, Invitrogen) and treated with radiolabeled drug. At various time intervals, cells were washed three times with ice-cold PBS and then lysed with 1% sodium dodecyl sulfate. The cellular radioactivity was quantified by liquid scintillation counting as described above. Similar analyses were performed in HEK293 cells transfected with hOATP1A2, hOATP1C1, mMATE1, and hMATE1, with cells seeded in poly lysine pre-coated 12-well plates. For hOATP1A2 and hOATP1C1, transient transfections were performed with either an empty vector, OATP1A2, or OATP1C1 using Lipofectamine 2000 according to the manufacturers protocol (Invitrogen).

Chain of hOAT4 (Q9NSA0 whole entry): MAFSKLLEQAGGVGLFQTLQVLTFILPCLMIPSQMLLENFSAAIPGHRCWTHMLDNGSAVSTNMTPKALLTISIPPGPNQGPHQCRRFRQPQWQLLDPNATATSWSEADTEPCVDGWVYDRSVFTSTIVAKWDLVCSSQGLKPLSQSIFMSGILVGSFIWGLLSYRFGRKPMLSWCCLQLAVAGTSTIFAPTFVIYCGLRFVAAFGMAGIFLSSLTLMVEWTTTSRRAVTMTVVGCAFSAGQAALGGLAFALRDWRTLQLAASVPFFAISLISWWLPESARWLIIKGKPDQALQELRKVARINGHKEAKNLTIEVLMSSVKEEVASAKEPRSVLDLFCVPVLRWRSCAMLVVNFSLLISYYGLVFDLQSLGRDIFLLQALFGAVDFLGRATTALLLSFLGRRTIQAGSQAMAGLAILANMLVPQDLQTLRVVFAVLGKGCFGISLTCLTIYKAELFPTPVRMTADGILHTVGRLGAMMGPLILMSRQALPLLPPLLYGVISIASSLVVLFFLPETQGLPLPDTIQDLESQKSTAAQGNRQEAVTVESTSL

SMILES | Influence on uptake of vincristine (L1210) | Vincristine uptake (% of vehicle) (hOATP1B1) | BMS score (mice; OATP1B2(-/-) mice, Day 1) | BMS score (mice; OATP1B2(-/-) mice, Day 2) | BMS score (mice; OATP1B2(-/-) mice, Day 3) | BMS score (mice; Wild-type mice, Day 1) | BMS score (mice; Wild-type mice, Day 2) | BMS score (mice; Wild-type mice, Day 3) | Basso Mouse Scale for Locomotion (BMS) score, average (mice; wild-type and OATP1B2(-/-) mice, single i.p. dose 1 mg/kg, up to 3 days) | IC50 (MOLT4; Homo sapiens, MOLT-4, MOLT4 cells) [nM] | IC50 (MOLT4; MOLT4 cells) | Vincristine uptake (% of vector control) (hOAT4) | Contribution of transporter to cellular uptake of vincristine (mMATE1)
Cc1cn(-c2cc(NC(=O)c3ccc(C)c(Nc4nccc(-c5cccnc5)n4)c3)cc(C(F)(F)F)c2)cn1 [Nilotinib, nilotinib] | did not influence the uptake of vincristine | 101.303 % of vehicle and 90.7094 % of vehicle and 62.8074 % of vehicle and 106.906 % of vehicle and 107.581 % of vehicle and 108.402 % of vehicle | – | – | – | – | – | – | – | – | – | – | –
CC[C@]1(O)C[C@H]2CN(CCc3c([nH]c4ccccc34)[C@@](C(=O)OC)(c3cc4c(cc3OC)N(C=O)[C@H]3[C@@](O)(C(=O)OC)[C@H](OC(C)=O)[C@]5(CC)C=CCN6CC[C@]43[C@@H]65)C2)C1 [Vincristine, vincristine] | – | – | 9 | 9 | 9 | 9 and 8 | 9 and 8 | 9 | 9 | 6.88 | 6.2 nM and 9.07 nM and 9.04 nM and 7.56 nM and 10.2 nM and 7.73 nM and 7.86 nM and 6.95 nM | 107.00 % of vector control and 81.00 % of vector control and 79.00 % of vector control and 90.00 % of vector control and 80.00 % of vector control and 99.00 % of vector control and 111.00 % of vector control and 113.00 % of vector control | do not appreciably contribute to the cellular uptake of vincristine

From paper PMC10443802, “Targeting a xenobiotic transporter to ameliorate vincristine-induced sensory neuropathy” (JCI Insight, 2023)
